Columns and labels:
A2780 = assay: In vitro cytotoxicity, MTT assay; type: cell-based, human
Method: (§1) In vitro cytotoxicity assays. HeLa, NCI-H460, HCT116, A2780, A2780cis and
(§2) cells), respectively, were seeded in 96-well plates for 24 h. The cells were then treated with a serial concentration of gold(III) complexes and incubated at 37 °C under a 5% CO2 atmosphere for 72 h. For nanostructures of 1, 2 and NC1, they were dissolved in
(§3) cisplatin were dissolved in culture medium-DMSO solution mixture (99:1, v/v).
(§4) After incubation for 72 h, MTT in PBS solution (5 mg/mL, 10 μL) was added to each well. The plates were incubated at 37 °C under a 5% CO2 atmosphere for another 4 h, and the cells were lysed by the addition of SDS solution (10%, w/w) with 0.01 M HCl (100 μL). After incubation in dark at 37 °C overnight, the cell viability after treatment was determined by a microtitre plate reader monitoring at the absorbance at 590 nm,

HCT116 cells = assay: Hydrolysis in live cells, UPLC-QTOF-MS of cell lysates; type: in vitro ADME, human; details: 2 μM, 24 h
Method: Hydrolysis of the gold(III) complexes in live cells was examined by ultra-performance liquid chromatography coupled quadrupole-time-of-flight mass spectrometry (UPLC-QTOF-MS). Colon cancer cells (HCT116) were treated with 1, 2 and 3 (2 μM) for 24 h, harvested and lysed in an acetonitrile–water solution mixture (3 : 1, v/v) prior to UPLC-QTOF-MS analysis. […] Therefore, the peak is attributable to the major metabolite of 1 formed in HCT116 cells. […] This should be attributable to the higher stability of the amide bond versus the ester bond in vitro. […]
which reflected the amount of blue formazan formed. IC50 values were then determined by CompuSyn S6 from three independent measurements.
Study on the release of hydrolyzed product from 1 and 2 in aqueous buffer solutions by ICP-MS. The nanostructures of gold(III) complex was dissolved in PBS solution (pH 7.4; 1 mg/mL) or sodium acetate buffer solution (pH 4.0; 1 mg/mL) and was dialyzed against 1 L of the buffer solution at 37 °C using semipermeable minidialysis tubes (molecular weight cut-off = 1,000 Da; GE Healthcare). At a predetermined time, an aliquot of solution was removed and dissolved in HNO3/HCl solution mixture (9:1, v/v; volume of aliquot: volume of acid mixture = 1:3). The solution mixture was heated at 65 °C with shaking overnight, and the gold content was determined by ICP-MS from three independent aliquots.
Study on the hydrolysis of 1 and 2 in aqueous buffer solutions by 1H NMR. […]
The flow rate was 0.4 mL/min and the injection volume was 2 µL. The UPLC-QTOF-MS chromatograms of 1, 3, 4 and solvent control in acetonitrile were also recorded for the interpretation of UPLC-QTOF-MS chromatograms of the cell lysate. […]
Au1a (2 µM; with 1 vol% DMSO). […] An aliquot of the cell suspension was subjected to Bio-rad protein assay with a microtitre plate reader at the absorbance at 595 nm, using bovine serum albumin as the protein standard. […] The solution mixture was heated at 65 °C with shaking overnight, and the gold content was determined by ICP-MS. […]

A2780cis = assay: In vitro cytotoxicity, MTT assay; type: cell-based, human
Method: as §1, §2, §3, §4

HCT116 = assay: In vitro cytotoxicity, MTT assay; type: cell-based, human
Method: as §1, §2, §3, §4

A2780adr = assay: In vitro cytotoxicity, MTT assay; type: cell-based, human
Method: as §1, §2, §3, §4

NCI-H460 = assay: In vitro cytotoxicity, MTT assay; type: cell-based, human
Method: as §1, §2, §3, §4

CCD-19Lu = assay: In vitro cytotoxicity, MTT assay; type: cell-based, human; details: 72 h incubation
Method: as §1, §2, §3, §4

MIHA = assay: In vitro cytotoxicity, MTT assay; type: cell-based; details: MTT assay, 72 h incubation, read-out: IC50
Method: as §1, §2, §3, §4

NCM460 = assay: In vitro cytotoxicity, MTT assay; type: cell-based, human; details: 72 h incubation
Method: as §1, §2, §3, §4

HeLa = assay: In vitro cytotoxicity, MTT assay; type: cell-based, human
Method: as §1, §2, §3, §4

COC(=O)c1ccc(C2=C3C=CC(=N3)C(c3ccccc3)=c3ccc4[n]3[Au+][n]3c(ccc32)C(c2ccccc2)=C2C=CC(=N2)C=4c2ccccc2)cc1.[Cl-] [Compound 3, [Au(TPP–COOCH3)]^+]
IC50 (A2780; A2780, MTT assay, 72 h incubation): 230 ± 20 nM
Toxicity toward cancer cells compared to that toward CCD-19Lu cells, A2780 (A2780; IC50 of CCD-19Lu cells / IC50 of A2780): 3.2
Toxicity toward cancer cells compared to that toward NCM460 cells, A2780 (A2780; IC50 of NCM460 cells / IC50 of A2780): 0.7
hydrolysis / release of [Au(TPP–COOH)]+ in cells (HCT116 cells): hydrolysis of the ester bond was also observed
IC50 (A2780cis; A2780cis, MTT assay, 72 h incubation): 190 ± 30 nM
Resistance found in A2780cis (A2780cis; IC50 of A2780cis cells / IC50 of A2780 cells): 1.0
Toxicity toward cancer cells compared to that toward CCD-19Lu cells, A2780cis (A2780cis; IC50 of CCD-19Lu cells / IC50 of A2780cis): 3.8
Toxicity toward cancer cells compared to that toward NCM460 cells, A2780cis (A2780cis; IC50 of NCM460 cells / IC50 of A2780cis): 0.7
IC50 (HCT116; HCT116, MTT assay, 72 h incubation): 90 ± 10 nM
Toxicity toward cancer cells compared to that toward CCD-19Lu cells, HCT-116 (HCT116; IC50 of CCD-19Lu cells / IC50 of HCT-116): 8.1
Toxicity toward cancer cells compared to that toward MIHA cells, HCT-116 (HCT116; IC50 of MIHA cells / IC50 of HCT-116): 7.7
Toxicity toward cancer cells compared to that toward NCM460 cells, HCT-116 (HCT116; IC50 of NCM460 cells / IC50 of HCT-116): 1.4
IC50 (A2780adr; A2780adr, MTT assay, 72 h incubation, read-out: IC50): 650 ± 60 nM
Resistance found in A2780adr (A2780adr; IC50 of A2780adr cells / IC50 of A2780 cells): 3.23
Toxicity toward cancer cells compared to that toward CCD-19Lu cells, A2780adr (A2780adr; IC50 of CCD-19Lu cells / IC50 of A2780adr): 1.1
Toxicity toward cancer cells compared to that toward MIHA cells, A2780adr (A2780adr; IC50 of MIHA cells / IC50 of A2780adr): 1.1
Toxicity toward cancer cells compared to that toward NCM460 cells, A2780adr (A2780adr; IC50 of NCM460 cells / IC50 of A2780adr): 0.2
Toxicity toward cancer cells compared to that toward CCD-19Lu cells, NCI-H460 (NCI-H460; IC50 of CCD-19Lu cells / IC50 of NCI-H460): 6.6
Toxicity toward cancer cells compared to that toward MIHA cells, NCI-H460 (NCI-H460; IC50 of MIHA cells / IC50 of NCI-H460): 7.0
Toxicity toward cancer cells compared to that toward NCM460 cells, NCI-H460 (NCI-H460; IC50 of NCM460 cells / IC50 of NCI-H460): 1.3
IC50 (NCI-H460; NCI-H460, MTT assay, 72 h incubation): 110 ± 10 nM
IC50 (CCD-19Lu): 730 ± 40 nM
IC50 (MIHA): 740 ± 90 nM
IC50 (NCM460): 130 ± 10 nM
IC50 (HeLa; HeLa, MTT assay, 72 h incubation, read-out: IC50): 820 ± 120 nM
Toxicity toward cancer cells compared to that toward CCD-19Lu cells, HeLa (HeLa; IC50 of CCD-19Lu cells / IC50 of HeLa): 0.9
Toxicity toward cancer cells compared to that toward MIHA cells, HeLa (HeLa; IC50 of MIHA cells / IC50 of HeLa): 0.9
Toxicity toward cancer cells compared to that toward NCM460 cells, HeLa (HeLa; IC50 of NCM460 cells / IC50 of HeLa): 0.2

From paper PMC5384453, “A multi-functional PEGylated gold(III) compound: potent anti-cancer properties and self-assembly into nanostructures for drug co-delivery” (Chemical Science, 2016)
